In experiment [1] the test system is Mycolicibacterium smegmatis. Briefly: Inhibition of Mycobacterium smegmatis NDH2 in inverted membrane vesicle assessed as inhibition of […] vesicle acidification at up to 120 uM by fluorescence based analysis. The format is cell membranes.
Experiment [2] has as its system Mycolicibacterium smegmatis. The experiment can be described thus: Inhibition of Mycobacterium smegmatis GMC_MDM2 NDH2 in inverted membrane vesicle assessed as inhibition of ATP-driven vesicle acidification by fluorescence based analysis. The format is cell membranes.
The subject of experiment [3] is Mycolicibacterium smegmatis. Briefly: Inhibition of Mycobacterium smegmatis NDH2 in inverted membrane vesicle assessed as inhibition of succinate-driven vesicle acidification by fluorescence based analysis. The format is cell membranes.
Experiment [4] relates to Mycolicibacterium smegmatis. Briefly: Inhibition of Mycobacterium smegmatis NDH2 in inverted membrane vesicle assessed as inhibition of […] vesicle acidification by fluorescence based analysis. The format is cell membranes.
Experiment [5] has as its system Mycolicibacterium smegmatis. The experiment can be described thus: Inhibition of Mycobacterium smegmatis NDH2 in inverted membrane vesicle assessed as inhibition of succinate-driven vesicle acidification at >10 uM by fluorescence based analysis. The format is cell membranes.
Experiment [6] can be described thus: Inhibition of recombinant Mycobacterium smegmatis NDH2 catalytic activity in presence of NADH incubated for 1 min by UV-spectrometric analysis. On the set-up: species or system Mycolicibacterium smegmatis.
For experiment [7], the system named is Mycolicibacterium smegmatis. Briefly: Inhibition of Mycobacterium smegmatis GMC_MDM2 NDH2 in inverted membrane vesicle assessed as inhibition of ATP-driven vesicle acidification at >10 uM by fluorescence based analysis. The format is cell membranes.

Active and inactive are the calls of the source. The rule behind the calls is not given here.

For the compound `C=C(C)[C@H]1Cc2c(ccc3c2O[C@@H]2COc4cc(OC)c(OC)cc4[C@@H]2C3=O)O1`, the inhibition result in experiment [1] is “inactive”.

As for `Nc1nc(Nc2ccc3nc(-c4ccc(F)cc4)cc(N)c3c2)cc(-c2ccc(Cl)cc2)n1`, the inhibition result in experiment [2], in experiment [3] and in experiment [4] was “Active” throughout.

What is called IC50 is the concentration that gives 50% inhibition. With `O=C(CSc1nc2ccccc2c(=O)[nH]1)NC1CCCCC1`, the inhibition result in experiment [5] is recorded as “Active; Compound Showed Partial Inhibition Of Succinate Driven Acidification”; in experiment [7], “Active; Compound Showed Partial Inhibition Of Atp Driven Acidification”. In addition, the half-inhibitory concentration (IC50) in experiment [6] is 23 nM. Further, the inhibition entry in experiment [2] was “Active”.

Consider `Nc1nc(Nc2ccc3nc(-c4ccc(F)cc4)cc(N)c3c2)cc(-c2ccc(C(F)(F)F)cc2)n1`, for which the inhibition entry in experiment [2], in experiment [3] and in experiment [4] was “Active” each time.

The values are drawn from ChEMBL document CHEMBL6109123, “Structure of Mycobacterial NDH-2 Bound to a 2-Mercapto-Quinazolinone Inhibitor” (J Med Chem, 2025).
